Laboratory results as given in ChEMBL document CHEMBL5244230, “Artemisinin-derived hybrids and their anticancer activity” (Eur J Med Chem, 2020).
“And” between values parts separate entries of the source, which are not always exact repeats. Equal entries are not always repeated.

Key:
PC-3 [1] = assay: Antiproliferative activity against human PC-3 cells assessed as reduction in cell viability measured for 24 hrs; type: functional, cell-based; conditions: PC-3, 24 h
A549 [2] = assay: Antiproliferative activity against human A549 cells assessed as reduction in cell viability measured for 24 hrs; type: functional, cell-based; conditions: A549, 24 h
SGC-7901 = assay: Antiproliferative activity against human SGC-7901 cells assessed as reduction in cell viability measured for 24 hrs; type: functional, cell-based; conditions: SGC-7901, 24 h
A549 [3] = assay: Antiproliferative activity against human A549 cells; type: functional, cell-based
HCT-116 [4] = assay: Antiproliferative activity against human HCT-116 cells; type: functional, cell-based
MV4-11 = assay: Antiproliferative activity against human MV4-11 cells; type: functional, cell-based
[5] = Cytotoxicity against human HCEC cells; type: toxicity, cell-based
KB = assay: Antiproliferative activity against human KB cells; type: functional, cell-based
HepG2 [6] = assay: Antiproliferative activity against human HepG2 cells; type: functional, cell-based
[7] = Anticancer activity against human Lu1 cells; type: functional, cell-based
MCF7 [8] = assay: Anticancer activity against human MCF7 cells assessed as inhibition of cell growth; type: functional, cell-based
HL-60 [9] = assay: Anticancer activity against human HL-60 cells; type: functional, cell-based
P388 = assay: Anticancer activity against mouse P388 cells; type: functional, cell-based
MCF7 [10] = assay: Anticancer activity against human MCF7 cells; type: functional, cell-based
EL4 = assay: Antiproliferative activity against mouse EL4 cells; type: functional, cell-based
HT-29 [11] = assay: Antiproliferative activity against human HT-29 cells; type: functional, cell-based
HeLa [12] = assay: Antiproliferative activity against human HeLa cells; type: functional, cell-based
[13] = Antiproliferative activity against human 1205Lu cells; type: functional, cell-based
A549 [14] = assay: Antiproliferative activity against human A549 cells assessed as cell growth inhibition by MTT assay; type: functional, cell-based
HepG2 [15] = assay: Antiproliferative activity against human HepG2 cells assessed as cell growth inhibition by MTT assay; type: functional, cell-based
HCT-15 = assay: Antiproliferative activity against human HCT-15 cells assessed as cell growth inhibition by MTT assay; type: functional, cell-based
[16] = Antiproliferative activity against human U-87 MG cells; type: functional, cell-based, U-87MG ATCC
HT-29 [17] = assay: Antiproliferative activity against human HT-29 cells assessed as reduction in cell viability; type: functional, cell-based
COLO 205 = assay: Antiproliferative activity against human COLO 205 cells; type: functional, cell-based
PC-3 [18] = assay: Antiproliferative activity against human PC-3 cells; type: functional, cell-based
NCI-H460 = assay: Antiproliferative activity against human NCI-H460 cells; type: functional, cell-based
[19] = Antiproliferative activity against mouse P388 cells assessed as reduction in cell viability measured after 72 hrs; type: functional, cell-based; conditions: 72 h
K562 = assay: Antiproliferative activity against human K562 cells; type: functional, cell-based
HL-60 [20] = assay: Antiproliferative activity against human HL-60 cells assessed as reduction in cell viability measured after 72 hrs; type: functional, cell-based; conditions: HL-60, 72 h
HEK293 = assay: Antiproliferative activity against human HEK293 cells; type: functional, cell-based
MDA-MB-231 = assay: Antiproliferative activity against human MDA-MB-231 cells; type: functional, cell-based; conditions: mda-mb-231
P388/ADR = assay: Antiproliferative activity against mouse P388/ADR cells assessed as reduction in cell viability measured after 72 hrs; type: functional, cell-based; conditions: 72 h
SMMC-7721 = assay: Antiproliferative activity against human SMMC-7721 cells; type: functional, cell-based
A-431 = assay: Antiproliferative activity against human A-431 cells; type: functional, cell-based
HCT-116 [21] = assay: Antiproliferative activity against human HCT-116 cells assessed as reduction in cell viability; type: functional, cell-based; conditions: Homo sapiens, HCT-116
HeLa [22] = assay: Antiproliferative activity against human HeLa cells assessed as reduction in cell viability; type: functional, cell-based

Compound: COc1ccc(Sc2cccc(C(=O)O[C@@H]3O[C@@H]4O[C@@]5(C)CC[C@H]6[C@H](C)[C@H](O)C[C@@H]([C@H]3C)[C@@]46OO5)c2)cc1
- IC50 (PC-3 [1]): 4.3 µM
- IC50 (A549 [2]): 4.3 µM
- IC50 (SGC-7901): 4.3 µM

Compound: C[C@H]1[C@@H](OC(=O)CCC(=O)NCC(C)(C)CNc2c3c4ccccc4nc-3n(C)c3ccc(Cl)cc23)O[C@@H]2O[C@@]3(C)CC[C@H]4[C@H](C)CC[C@@H]1[C@@]24OO3
- IC50 (A549 [3]): 0.072 µM
- IC50 (HCT-116 [4]): 0.072 µM
- IC50 (MV4-11): 0.072 µM

Compound: C[C@H]1[C@@H](Sc2ccccc2)O[C@@H]2O[C@@]3(C)CC[C@H]4[C@H](C)CC[C@@H]1[C@@]24OO3
- IC50 [5]: 5.24 µM

Compound: Cc1cn([C@H]2C[C@H](n3cc(CNC(=O)CC(C)CC(=O)O[C@@H]4O[C@@H]5O[C@@]6(C)CC[C@H]7[C@H](C)CC[C@@H]([C@H]4C)[C@@]57OO6)nn3)[C@@H](CO)O2)c(=O)[nH]c1=O (stereo partly specified)
- IC50 (KB): 47.6 µM
- IC50 (HepG2 [6]): 47.6 µM

Compound: C[C@H]1[C@@H](OCCc2cn(-c3cccc(C(=O)N4CCCCC4)c3)nn2)O[C@@H]2O[C@@]3(C)CC[C@H]4[C@H](C)CC[C@@H]1[C@@]24OO3
- IC50 [7]: 5.7 µM
- IC50 (MCF7 [8]): 5.7 µM
- IC50 (HL-60 [9]): 5.7 µM
- IC50 (P388): 5.7 µM
- IC50 (MCF7 [10]): 5.7 µM

Compound: C[C@H]1[C@@H](CCSCC[C@H]2O[C@@H]3O[C@@]4(C)CC[C@H]5[C@H](C)CC[C@@H]([C@H]2C)[C@@]35OO4)O[C@@H]2O[C@@]3(C)CC[C@H]4[C@H](C)CC[C@@H]1[C@@]24OO3
- IC50 (EL4): 0.017 µM
- IC50 (HT-29 [11]): 0.017 µM
- IC50 (MCF7 [10]): 0.017 µM

Compound: C[C@H]1[C@@H](CCC(=O)Nc2ccc(F)cc2)O[C@@H]2O[C@]3(C)CC[C@H]4[C@H](C)CC[C@@H]1[C@@]24OO3
- IC50 (HeLa [12]): 40 µM
- IC50 (HCT-116 [4]): 40 µM
- IC50 [13]: 40 µM

Compound: C[C@H]1[C@H](CCS(=O)(=O)CC[C@H]2O[C@@H]3O[C@@]4(C)CC[C@H]5[C@H](C)CC[C@@H]([C@H]2C)[C@@]35OO4)O[C@@H]2O[C@@]3(C)CC[C@H]4[C@H](C)CC[C@@H]1[C@@]24OO3
- IC50 (EL4): 0.025 µM
- IC50 (HT-29 [11]): 0.025 µM
- IC50 (MCF7 [10]): 0.025 µM

Compound: C[C@@H]1CC[C@@H]2[C@]34OO[C@](C)(CC[C@@H]13)O[C@H]4OC(=O)[C@@]21CC(c2ccccc2)=NO1
- IC50 (A549 [14]): 4.04 µM
- IC50 (HepG2 [15]): 4.04 µM
- IC50 (HCT-15): 4.04 µM

Compound: C[C@H]1[C@@H](OC(=O)CCC(=O)NCCCNc2c3ccccc3nc3c2[nH]c2ccccc23)O[C@@H]2O[C@@]3(C)CC[C@H]4[C@H](C)CC[C@@H]1[C@@]24OO3
- IC50 (A549 [3]): 0.286 µM
- IC50 (HCT-116 [4]): 0.286 µM
- IC50 (MV4-11): 0.286 µM

Compound: C[C@H]1[C@@H](O)O[C@@H]2O[C@@]3(C)CC[C@H]4[C@H](C)CC[C@@H]1[C@@]24OO3 [ARTENIMOL]
- IC50 [16]: 5.29 µM
- IC50 (HT-29 [17]): 5.29 µM
- IC50 [7]: 39.9 µM
- IC50 (COLO 205): 15.7 µM
- IC50 (PC-3 [18]): 15.7 µM
- IC50 (NCI-H460): 5.29 µM
- IC50 [19]: 1.5 µM
- IC50 (MCF7 [8]): 39.9 µM
- IC50 (K562): 15.7 µM
- IC50 (A549 [3]): 5.29 µM
- IC50 (HL-60 [20]): 0.299 µM
- IC50 (HEK293): 15.7 µM
- IC50 (MDA-MB-231): 15.7 µM and 5.29 µM
- IC50 (HL-60 [9]): 39.9 µM
- IC50 (P388/ADR): 20.7 µM
- IC50 (SMMC-7721): 0.4 µM
- IC50 (A-431): 15.7 µM
- IC50 (P388): 39.9 µM
- IC50 (MCF7 [10]): 39.9 µM

Compound: C[C@H]1[C@H](CCS(=O)(=O)CCCS(=O)(=O)CC[C@H]2O[C@@H]3O[C@@]4(C)CC[C@H]5[C@H](C)CC[C@@H]([C@H]2C)[C@@]35OO4)O[C@@H]2O[C@@]3(C)CC[C@H]4[C@H](C)CC[C@@H]1[C@@]24OO3
- IC50 (EL4): 0.38 µM
- IC50 (HT-29 [11]): 0.38 µM
- IC50 (MCF7 [10]): 0.38 µM

Compound: C[C@H]1[C@@H](OC(=O)CCC(=O)NCCCNc2c3c4ccccc4nc-3n(C)c3ccccc23)O[C@@H]2O[C@@]3(C)CC[C@H]4[C@H](C)CC[C@@H]1[C@@]24OO3
- IC50 (A549 [3]): 0.072 µM
- IC50 (HCT-116 [4]): 0.072 µM
- IC50 (MV4-11): 0.072 µM

Compound: C[C@H]1[C@@H](CCCOP(=O)(O)Oc2ccccc2)O[C@@H]2O[C@@]3(C)CC[C@H]4[C@H](C)CC[C@@H]1[C@@]24OO3
- IC50 (HCT-116 [21]): 3.82 µM
- IC50 (HeLa [22]): 3.82 µM

Compound: Cc1c2ccncc2c(C)c2c1[nH]c1ccccc12 [ELLIPTECINE]
- IC50 [7]: 1.7 µM
- IC50 (KB): 0.81 µM
- IC50 (MCF7 [8]): 1.7 µM
- IC50 (HepG2 [6]): 0.93 µM
- IC50 (HL-60 [9]): 1.7 µM
- IC50 (P388): 1.7 µM
- IC50 (MCF7 [10]): 1.7 µM

Compound: C[C@H]1[C@@H](OC(=O)CCC(=O)NCC(C)(C)CNc2c3c4ccccc4nc-3n(C)c3ccc(Br)cc23)O[C@@H]2O[C@@]3(C)CC[C@H]4[C@H](C)CC[C@@H]1[C@@]24OO3
- IC50 (A549 [3]): 0.072 µM
- IC50 (HCT-116 [4]): 0.072 µM
- IC50 (MV4-11): 0.072 µM
